“And” between values parts separate entries of the source, which are not always exact repeats. Identical values can stand only once.
Tests used:
U266-PSR = assay: MTS cell viability assay; type: cell-based; conditions: 48h, Fig. 6E, read-out: IC50, Survival (%)
Procedure: (§1) Myeloma cell lines were plated in 96-well plates (2 × 10^5 cells/ml) and treated with vehicle control (HPβCD) and test compounds. Cell viability was assessed at 48 hours using the MTS assay (CellTiter 96, CAT# G3582). Absorbance was measured at 490 nm after a 2-hour incubation at 37°C. IC50 values were calculated using Prism software (version 9.3.1), and synergy matrices were generated with Combenefit Software.

U266 = assay: MTS cell viability assay; type: cell-based; conditions: Homo sapiens, U-266; U266, 48h, Fig. 6E; read-out: IC50, Survival (%)
Procedure: as §1

U266-Luc MM cells = assay: U266-Luc in vivo model, tail vein injection; conditions: 10 mg/kg/day, M-F, from day 20; days post-tumor inoculation
Procedure: For the U266-Luc model, 1 × 10^6 cells (100 μl/PBS) were tail vein injected into 4- to 6-week-old female and male NSG mice. […] Endpoint was represented by hind limb paralysis or >20% weight loss. When sacrificed, tumors tibiae were harvested and fixed in 10% neutral buffered formalin for 24 hours. Bioluminescent signal is reported as the average of the sum of dorsal and ventral signal of the mice/group/timepoint. […]
28 Animal Experimentation: All animal experiments were performed with approval from the
29 Moffitt/University of South Florida Institutional Animal Care and Use Committee (Protocol
31 validation of MA9 efficacy (Figure 4), we initially included n = 10 mice per treatment group:
Randomization based on sex, weight,
33 and initial tumor burden was conducted, followed by treatment with either vehicle control (n = 6),
35 Tumor progression was tracked via bioluminescence: endpoint was paralysis or >20% weight loss.
36 Experiments were blinded. […]
38 For MA9 therapy efficacy, mice were treated with vehicle (n=10) or MA9 (10 mg/kg/day,
39 subcutaneously, M-F from day 20; n=10) (Supplementary Fig. 7E, F). Survival and toxicity
40 (weight, clinical signs) was monitored.
43 Luciferase-labeled MM cells 5TGM1-Luc (RRID: CVCL_VI66) and U266-Luc (RRID: […]
51 cells (all from the ATCC, USA) were routinely cultured at 37 °C in Roswell Park Memorial
53 FBS1) and penicillin/streptomycin (hereafter, complete medium).
54 Cells were not used for five days following PI-treatment. All myeloma cell lines were […]

[1] = tested on: autophagy proteins in U266 MM cells; assay: Immunoblot densitometry of autophagy proteins; type: cell-based, Human; conditions: U266, 6h, MA9-060 1μM, JQ1 10μM, CQ 1μM; for LC3II densitometry: CTRL 0.34; for LC3I densitometry: CTRL 3.01; for ULK1 densitometry: CTRL 7.21; for ULK3 densitometry: CTRL 15.17
Procedure: Figure 3. Anti-myeloma activity of the MA9–060 autophagy inhibitor. A. Chemical structure of the autophagy inhibitor MA9–060. […] Chloroquine (CQ) (1μM) served as a positive control for autophagy inhibition. C. […] Hoechst 33342 dye appears here as the nuclear blue staining (Multiple comparisons ANOVA, p <0.0001).
157 5872S). Protein concentration was quantified by Thermo Scientific™ Pierce™ BCA™ Protein
30 μg protein was loaded to 10%-15% gel and ran at
159 100V for 2 hours. Later protein was transferred to PVDF membrane and blocked with 5% skimmed
160 milk in TBST (10 mM Tris/HCl pH8.0, 0.12M NaCl, 0.1% Tween 20) containing 5% BSA [8] for
163 at 4°C overnight. Membranes were washed 3 times,10 minutes with TBS. Then incubated with
164 appropriate secondary antibodies at 1:1000 ratio in skimmed milk or 2% BSA. The membranes
165 were washed again 3 times for 10 minutes with TBST. ECL reagents were added to the membrane
166 and blot was developed by LICOR Imaging Studio.
167 All immunoblotting assays were performed at least in three replicates and representative
168 images are shown. Commercially available antibodies and their dilutions are listed in
169 Supplementary Table 5. Immunoblotting images were acquired and quantified using LICOR
170 Image Studio Quant software. […]

[2] = tested on: autophagy in U266 MM cells; assay: CYTO-ID autophagy detection; type: cell-based, Human
Procedure: Autophagic activity was monitored using the Cyto-ID Green Autophagy Detection Kit (Enzo Life Sciences, ENZ-51031-K200, USA) as per manufacturer’s instructions. Further details and protocols for quantitative analysis by Flow Cytometry and Confocal Microscopy are provided in Supplementary Materials.
248 80% confluence. Cells were pelleted again and re-suspended in Resuspension Buffer R (Neon 10
249 μl kit Invitrogen) to a final concentration of 1 × 10^7 cells/ml. 1 × 10^6 cells were then transferred to
250 a sterile 1.5 ml microcentrifuge tube (Sarstedt), brought to 10 μl final volume of cell suspension
251 with Buffer R, and mixed with Alt-R CRISPR-Cas9 crRNA: Hs.Cas9.ULK3.1.AA (position
253 […]), (Integrated DNA Technologies). Alt-R CRISPR-Cas9
254 Negative Control RNA #1 (CAT# 1079138) was used in NTC control. Cells were counted,
255 electroporated and seeded in a 24-well plate with 0.5 ml of pre-warmed supplemented RPMI
258 Measurement of autophagic activity - CytoID Assay
260 autophagic compartments. Cells were washed and treated with 1 μM tested compound or vehicle
261 control for 6h under standard tissue culture conditions. […]
270 later, cells were washed and assessed by flow cytometry. […]
272 compensation and fluorescence-minus-one (FMO) controls were generated in parallel. […]
273 fluorescence intensity (MFI) and percentage of Cyto-ID Green-expressing MM singlet live (DAPI […]

primary CD138+ MM cells = assay: EMMA ex vivo platform, live cell imaging, 96 hours, collagen matrix with bone marrow stroma and patient plasma; type: cell-based; set-up: scale not given here
Description: For clinical robustness, we tested the activity of MA9 in MM patient samples using our ex vivo mathematical myeloma advisor (EMMA) platform (Supplementary Table 1). […]
For these assays, we used a novel EMMA platform developed at Moffitt. Further details are included in the supplemental Materials. […]
400 Ex vivo drug sensitivity characterization
401 An ex vivo assay was used to quantify the chemosensitivity of primary MM cells. Fresh BM
402 aspirate cells were enriched for CD138+ expression using Miltenyi (Bergisch Gladbach, Germany)
MM cells (CD138+) were seeded in Corning
404 Cell BIND 384 well plates (Corning, NY) with collagen I and previously established human-
407 inactivated), penicillin/streptomycin, and patient-derived plasma (10%, freshly obtained from
409 added using a robotic plate handler so that every drug/combination was tested at 5 (fixed
410 concentration ratio, for combinations) concentrations (1:3 serial dilution) in two replicates.
411 Negative controls (supplemented growth media with and without the vehicle control dimethyl
412 sulfoxide [DMSO]) were included, as well as positive controls for each drug (cell line MM1.S at
413 highest drug concentration). Plates were placed in a motorized stage microscope (EVOS Auto FL,
414 Life Technologies, Carlsbad, CA) equipped with an incubator and maintained at 5% CO2 and 37
415 °C. […]
Digital image analysis computes the percent
418 viability of MM cells for each time point and experimental condition (drug and concentration)

[3] = tested on: MM cells (5TGM1, 8226, and U266); assay: MTS assay on MM cells; type: cell-based
Procedure: as §1

## CCN(CC)CCCC(C)Nc1ccnc2cc(Cl)ccc12 (stereo not shown) [CQ, Chloroquine]
U266-PSR
  IC50: 8.7 mM
U266
  IC50: 0.055 mM
U266-Luc MM cells
  median survival: 81.5 days
[1]
  LC3II densitometry: 0.14
  LC3I densitometry: 1.69
  ULK1 densitometry: 0.78
  ULK3 densitometry: 11.1

## Cc1sc2c(c1C)C(c1ccc(Cl)cc1)=N[C@@H](CC(=O)OC(C)(C)C)c1nnc(C)n1-2 [JQ1]
[2]
  effect on autophagy: no effect
U266-Luc MM cells
  median survival: 90.5 days
[1]
  LC3II densitometry: 0.40
  LC3I densitometry: 3.36
  ULK1 densitometry: 6.20
  ULK3 densitometry: 16.81

## CC(C)C[C@H](NC(=O)[C@H](CCc1ccccc1)NC(=O)CN1CCOCC1)C(=O)N[C@@H](Cc1ccccc1)C(=O)N[C@@H](CC(C)C)C(=O)[C@@]1(C)CO1 [CFZ, carfilzomib]
Primary CD138+ MM cells; Pt620, NDMM
  AUC: 36.78
Primary CD138+ MM cells; Pt622, LRRMM
  AUC: 32.89
Primary CD138+ MM cells; Pt625, NDMM
  AUC: 36.25
Primary CD138+ MM cells; Pt636, ERRMM
  AUC: 53.52
Primary CD138+ MM cells; Pt638, NDMM
  AUC: 44.52
Primary CD138+ MM cells; Pt639, NDMM
  AUC: 52.97
Primary CD138+ MM cells; Pt648, LRMM
  AUC: 48.435
Primary CD138+ MM cells; Pt652, LRMM
  AUC: 67.924
Primary CD138+ MM cells; Pt653, LRMM
  AUC: 60.160
Primary CD138+ MM cells; Pt655, LRMM
  AUC: 37.063 and 37.06
Primary CD138+ MM cells; Pt663, LRMM
  AUC: 48.477 and 48.48
Primary CD138+ MM cells; Pt665, LRMM
  AUC: 52.826 and 52.83
Primary CD138+ MM cells; Pt666, LRMM
  AUC: 40.984 and 40.98
Primary CD138+ MM cells; Pt669, ERMM
  AUC: 48.58
Primary CD138+ MM cells; Pt672, NDMM
  AUC: 56.496 and 56.5
Primary CD138+ MM cells; Pt677, NDMM
  AUC: 38.487 and 37.936
Primary CD138+ MM cells; Pt680, ERMM
  AUC: 43.762 and 43.248 and 43.76
Primary CD138+ MM cells; Pt685, ERMM
  AUC: 44.316 and 44.32
Primary CD138+ MM cells; Pt689, NDMM
  AUC: 43.578
Primary CD138+ MM cells; Pt691, LRMM
  AUC: 40.781 and 40.78
Primary CD138+ MM cells; Pt693, SMOL
  AUC: 97.333 and 97.33
Primary CD138+ MM cells; Pt694, NDMM
  AUC: 49.029 and 49.03
Primary CD138+ MM cells; Pt695, LRMM
  AUC: 54.535 and 54.53
Primary CD138+ MM cells; Pt697, NDMM
  AUC: 45.229 and 45.23
Primary CD138+ MM cells; Pt700, NDMM
  AUC: 48.455 and 54.337 and 54.34
Primary CD138+ MM cells; Pt707, LRMM
  AUC: 60.754 and 60.75
Primary CD138+ MM cells; Pt718, SMOL
  AUC: 58.31
Primary CD138+ MM cells; Pt737, MGUS
  AUC: 45.483
Primary CD138+ MM cells; Pt738, NDMM
  AUC: 52.453 and 52.45
Primary CD138+ MM cells; Pt740, SMOL
  AUC: 45.352
Primary CD138+ MM cells; Pt745, NDMM
  AUC: 68.911
Primary CD138+ MM cells; Pt765, LRRMM
  AUC: 59.77
Primary CD138+ MM cells; Pt773, LRRMM
  AUC: 32.99
Primary CD138+ MM cells; Pt808, LRRMM
  AUC: 47.11
Primary CD138+ MM cells; Pt814, LRRMM
  AUC: 62.23
Primary CD138+ MM cells; Pt821, NDMM
  AUC: 54.79
Primary CD138+ MM cells; Pt822, ERRMM
  AUC: 62.96
Primary CD138+ MM cells; Pt825, NDMM
  AUC: 59.86
Primary CD138+ MM cells; Pt830, ERRMM
  AUC: 61.41
Primary CD138+ MM cells; Pt849, LRRMM
  AUC: 99.06
Primary CD138+ MM cells; Pt852, NDMM
  AUC: 28.629
Primary CD138+ MM cells; Pt853, ERMM
  AUC: 62.247 and 58.956
Primary CD138+ MM cells; Pt856, NDMM
  AUC: 48.272 and 48.27
Primary CD138+ MM cells; Pt865, LRMM
  AUC: 60.759 and 60.76
Primary CD138+ MM cells; Pt866, NDMM
  AUC: 75.161 and 75.16
Primary CD138+ MM cells; Pt875, NDMM
  AUC: 41.904 and 41.9
Primary CD138+ MM cells; Pt885, NDMM
  AUC: 51.382 and 45.860 and 51.38
Primary CD138+ MM cells; Pt888, LRMM
  AUC: 51.003 and 51
Primary CD138+ MM cells; Pt893, LRMM
  AUC: 92.226
Primary CD138+ MM cells; Pt899, SMOL
  AUC: 53.140
Primary CD138+ MM cells; Pt906, NDMM
  AUC: 58.079 and 58.08
Primary CD138+ MM cells; Pt909, LRMM
  AUC: 32.841
Primary CD138+ MM cells; Pt912, PCL
  AUC: 23.632
Primary CD138+ MM cells; Pt917, LRMM
  AUC: 75.009
Primary CD138+ MM cells; Pt920, LRMM
  AUC: 39.820
Primary CD138+ MM cells; Pt923, LRMM
  AUC: 54.728 and 54.73
Primary CD138+ MM cells; Pt932, LRMM
  AUC: 43.433
Primary CD138+ MM cells; Pt933, LRMM
  AUC: 54.495 and 54.49
Primary CD138+ MM cells; Pt935, NDMM
  AUC: 46.326 and 46.33
Primary CD138+ MM cells; Pt936, LRMM
  AUC: 50.956
Primary CD138+ MM cells; Pt937, NDMM
  AUC: 51.703 and 49.814
Primary CD138+ MM cells; Pt940, LRMM
  AUC: 63.001
Primary CD138+ MM cells; Pt945, LRMM
  AUC: 53.027
Primary CD138+ MM cells; Pt948, LRMM
  AUC: 57.94
Primary CD138+ MM cells; Pt951, ERMM
  AUC: 62.878 and 62.88
Primary CD138+ MM cells; Pt956, NDMM
  AUC: 68.610 and 64.376
Primary CD138+ MM cells; Pt957, LRMM
  AUC: 82.913
Primary CD138+ MM cells; Pt961, NDMM
  AUC: 64.332 and 67.807

## N#CC[C@H](C1CCCC1)n1cc(-c2ncnc3[nH]ccc23)cn1 [ruxolitinib]
[3]
  effect on cell survival: no effect
